Experimental data as given in publication PMC5771863 (Anesthesiology, 2018).
Read-outs that look alike come from different tables or passages of the source.

Legend:
Format in all cases: cell-based
[1] = target: α1β3L297Cγ2L GABAA receptors (Homo sapiens, UniProt P14867+P28472, L322C); test: GABA EC5 enhancement by anesthetics, voltage clamp in Xenopus oocytes; settings: β3L297C; […] ETO, 5 μM PRO, […] ALX
[2] = target: α1β3T262Cγ2L GABAA receptors (Homo sapiens, UniProt P14867+P28472, T287C); test: Substituted cysteine modification-protection; settings: pCMBS + maximal GABA, 10 μM ETO, 20 μM PRO
Sequence of α1β3T262Cγ2L GABAA receptors (P14867 28-456): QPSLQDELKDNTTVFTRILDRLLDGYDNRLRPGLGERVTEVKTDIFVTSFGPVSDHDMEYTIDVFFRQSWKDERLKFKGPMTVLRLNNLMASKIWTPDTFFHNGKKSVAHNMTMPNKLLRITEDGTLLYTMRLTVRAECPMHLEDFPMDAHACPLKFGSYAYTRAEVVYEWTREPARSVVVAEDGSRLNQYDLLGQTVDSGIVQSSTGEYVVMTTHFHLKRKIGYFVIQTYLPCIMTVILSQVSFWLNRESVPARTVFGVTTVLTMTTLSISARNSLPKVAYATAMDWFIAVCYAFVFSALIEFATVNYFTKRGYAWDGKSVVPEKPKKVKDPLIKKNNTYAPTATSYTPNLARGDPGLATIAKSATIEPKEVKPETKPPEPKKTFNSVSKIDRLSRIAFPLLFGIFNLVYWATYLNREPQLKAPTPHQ
Sequence of α1β3T262Cγ2L GABAA receptors (P28472 26-473 T287C): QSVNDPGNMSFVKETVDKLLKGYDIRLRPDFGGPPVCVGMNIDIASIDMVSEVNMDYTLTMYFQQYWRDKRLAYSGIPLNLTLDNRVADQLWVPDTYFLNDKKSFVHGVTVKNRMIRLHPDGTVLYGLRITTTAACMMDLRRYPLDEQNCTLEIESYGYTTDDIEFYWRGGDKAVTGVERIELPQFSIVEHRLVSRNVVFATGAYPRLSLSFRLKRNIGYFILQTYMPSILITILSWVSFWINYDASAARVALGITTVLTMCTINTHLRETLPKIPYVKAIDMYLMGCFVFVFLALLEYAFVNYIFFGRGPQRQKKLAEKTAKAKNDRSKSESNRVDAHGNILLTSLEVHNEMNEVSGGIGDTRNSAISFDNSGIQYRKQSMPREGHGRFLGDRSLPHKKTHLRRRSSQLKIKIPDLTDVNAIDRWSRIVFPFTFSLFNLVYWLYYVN
Sequence of α1β3T262Cγ2L GABAA receptors (P18507 40-475 partner): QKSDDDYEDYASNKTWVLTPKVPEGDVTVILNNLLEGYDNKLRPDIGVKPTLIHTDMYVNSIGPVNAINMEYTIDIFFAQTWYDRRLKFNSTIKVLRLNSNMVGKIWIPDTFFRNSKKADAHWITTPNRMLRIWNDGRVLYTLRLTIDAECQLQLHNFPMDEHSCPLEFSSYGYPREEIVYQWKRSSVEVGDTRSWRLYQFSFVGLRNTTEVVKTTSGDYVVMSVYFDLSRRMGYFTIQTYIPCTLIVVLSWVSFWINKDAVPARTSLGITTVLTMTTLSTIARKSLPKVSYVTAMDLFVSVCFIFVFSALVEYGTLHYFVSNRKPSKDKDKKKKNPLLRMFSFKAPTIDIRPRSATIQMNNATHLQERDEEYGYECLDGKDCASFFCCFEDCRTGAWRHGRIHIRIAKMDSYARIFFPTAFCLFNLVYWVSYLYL

[3] = target: α1β3E298Cγ2L GABAA receptors (Homo sapiens, UniProt P14867+P28472, E323C); test: GABA EC5 enhancement by anesthetics, voltage clamp in Xenopus oocytes; settings: β3E298C; […] ETO, 5 μM PRO, […] ALX
Sequence of α1β3E298Cγ2L GABAA receptors (P14867 28-456): as the sequence (P14867 28-456) above
Sequence of α1β3E298Cγ2L GABAA receptors (P28472 26-473 E323C): as the sequence (P28472 26-473 T287C) above, with C262T, E298C counted along it
Sequence of α1β3E298Cγ2L GABAA receptors (P18507 40-475 partner): as the sequence (P18507 40-475 partner) above

[4] = target: α1β3F293Cγ2L GABAA receptors (Homo sapiens, UniProt P14867+P28472, F318C); settings: β3F293C; […] ETO, 5 μM PRO, […] ALX
Sequence of α1β3F293Cγ2L GABAA receptors (P14867 28-456): as the sequence (P14867 28-456) above
Sequence of α1β3F293Cγ2L GABAA receptors (P28472 26-473 F318C): as the sequence (P28472 26-473 T287C) above, with C262T, F293C counted along it
Sequence of α1β3F293Cγ2L GABAA receptors (P18507 40-475 partner): as the sequence (P18507 40-475 partner) above

[5] = target: T1, α1β3M286Cγ2L GABAA receptors (Homo sapiens, UniProt P14867+P28472, M311C); test: GABA EC5 enhancement by anesthetics, voltage clamp in Xenopus oocytes; settings: β3M286C; […] ETO, 5 μM PRO, […] ALX
T1 sequence (P14867 28-456): as the sequence (P14867 28-456) above
T1 sequence (P28472 26-473 M311C): as the sequence (P28472 26-473 T287C) above, with C262T, M286C counted along it
T1 sequence (P18507 40-475 partner): as the sequence (P18507 40-475 partner) above

[6] = target: T2, α1β3F289Cγ2L GABAA receptors (Homo sapiens, UniProt P14867+P28472, F314C); settings: β3F289C; […] ETO, 5 μM PRO, […] ALX
T2 sequence (P14867 28-456): as the sequence (P14867 28-456) above
T2 sequence (P28472 26-473 F314C): as the sequence (P28472 26-473 T287C) above, with C262T, F289C counted along it
T2 sequence (P18507 40-475 partner): as the sequence (P18507 40-475 partner) above

[7] = target: T2, α1β3F289Cγ2L GABAA receptors; settings: pCMBS + maximal GABA
[8] = target: T1, α1β3M286Cγ2L GABAA receptors; settings: β3M286C; pCMBS + maximal GABA; 10 μM ETO, 20 μM PRO, 10 μM ALX
[9] = target: α1β3V290Cγ2L GABAA receptors (Homo sapiens, UniProt P14867+P28472, V315C); settings: α1β3V290Cγ2L; pCMBS + maximal GABA; 10 μM ETO, 20 μM PRO, 10 μM ALX
Sequence of α1β3V290Cγ2L GABAA receptors (P14867 28-456, stated change not applied): as the sequence (P14867 28-456) above
Sequence of α1β3V290Cγ2L GABAA receptors (P28472 26-473 V315C): as the sequence (P28472 26-473 T287C) above, with C262T, V290C counted along it
Sequence of α1β3V290Cγ2L GABAA receptors (P18507 40-475 partner): as the sequence (P18507 40-475 partner) above

[10] = 10 μM ETO, 20 μM PRO, 10 μM ALX

Sequence of α1β3L297Cγ2L GABAA receptors (P14867 28-456): as the sequence (P14867 28-456) above
Sequence of α1β3L297Cγ2L GABAA receptors (P28472 26-473 L322C): as the sequence (P28472 26-473 T287C) above, with C262T, L297C counted along it
Sequence of α1β3L297Cγ2L GABAA receptors (P18507 40-475 partner): as the sequence (P18507 40-475 partner) above

| Structure (SMILES) | EC5 enhancement compared to wild-type [1] | effect on apparent rate of pCMBS modification [2] | EC5 enhancement compared to wild-type [3] | EC5 enhancement compared to wild-type [4] | EC5 enhancement compared to wild-type [5] | EC5 enhancement compared to wild-type [6] | effect on apparent rate of pCMBS modification [7, 10] | effect on apparent rate of pCMBS modification [8] | effect on apparent rate of pCMBS modification [9] | effect on apparent rate of pCMBS modification ([7]; 50 μM ETO, 100 μM PRO, 50 μM ALX) |
| --- | --- | --- | --- | --- | --- | --- | --- | --- | --- | --- |
| CCOC(=O)c1cncn1[C@H](C)c1ccccc1 [ETO, R-Etomidate] | increased | unaffected | increased | increased | reduced | reduced | weakly blocked | block modification | strongly blocked |  |
| CC(C)c1cccc(C(C)C)c1O [PRO, 2,6-diisopropylphenol] |  | accelerated |  | reduced | reduced | reduced | unaffected | block modification | strongly blocked | neither 100 μM PRO nor 50 μM ALX inhibited modification |
